Three compounds from patent US20080269102A1, “3-(2-Alkoxycarbonyloxy-Phenyl) Acrylic Acid Esters And Their Use As Precursors For The Delivery Of Olfactory Compounds” (GIVAUDAN SA, priority 2004, published 2008) can be followed below.

A short description of data set [1]: UV-spectra / colour comparison of protected and non-protected fragrance precursor in presence of a fabric conditioner. To be noted: 0.1 mg/ml in CH3CN/H2O (3:2), visually judged. In kind it is physicochemical. The protocol: UV-Spectra Comparison (Protected/Non Protected Fragrance in Presence of a Fabric Conditioner)
Solutions A to D, 5 ml each, were prepared using CH3CN/H2O (3:2) as a solvent and their colour visually judged.
After adding a fabric conditioner to a solution comprising an unprotected fragrance precursor (solution A/B) the solution turned bright yellow, whereas a solution comprising a protected fragrance precursor (solution C/D) remains colourless.
The UV-spectra of solutions A to D were recorded and are depicted in FIG. 1.

Setting [2] is: additive fabric conditioner (30 mg).

In general, melting point refers to the temperature, or range, at which the solid turns liquid. On to `CC(C)=CCCC(C)CCOC(=O)C=Cc1ccccc1O` (stereo not drawn) [Example 1, 3-(2-Hydroxy-phenyl)acrylic acid 3,7-dimethyl-oct-6-enyl ester], for which the melting point was 37 to 39 °C.
For `C=CCCCCCCCCOC(=O)C=Cc1ccccc1O` [Example 2, 3-(2-Hydroxy-phenyl)acrylic acid dec-9-enyl ester], the melting point is 58 °C. Further, in data set [1] (setting [2]), the Colour result is reported as “Bright”. The Colour entry in data set [1] (additive none) was “colourless”.
For the compound `C=CCCCCCCCCOC(=O)C=Cc1ccccc1OC(=O)Oc1ccccc1C=CC(=O)OCCCCCCCCC=C` [Example 3], the Colour result in data set [1] (setting [2]) and in data set [1] (additive none) was “colourless” throughout.
